According to US20250042897A1, “HETEROCYCLIC COMPOUNDS AS TRIGGERING RECEPTOR EXPRESSED ON MYELOID CELLS 2 AGONISTS AND METHODS OF USE” (Vigil Neuroscience, Inc., priority 2021, published 2025):

Each compound was assayed against T1, human TREM2 (Homo sapiens, UniProt Q9NZC2) (assay: hTREM2 agonist potency by cellular Syk phosphorylation (AlphaLisa) in HEK293T-hTREM2 cells). Details: Table D-2; HEK293 cells expressing human TREM2 and DAP12; pSyk AlphaLisa; 45 minutes at room temperature.
T1 construct: expressed in transfected cells; host or cells: HEK293T
T1 sequence (Q9NZC2 19-230): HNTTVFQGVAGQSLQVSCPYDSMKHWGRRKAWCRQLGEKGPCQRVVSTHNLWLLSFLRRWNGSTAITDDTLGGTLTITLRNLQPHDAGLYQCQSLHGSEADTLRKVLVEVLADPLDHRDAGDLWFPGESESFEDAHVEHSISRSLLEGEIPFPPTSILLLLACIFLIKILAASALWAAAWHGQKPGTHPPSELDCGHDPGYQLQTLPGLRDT
T1 sequence (O43914 22-113 partner): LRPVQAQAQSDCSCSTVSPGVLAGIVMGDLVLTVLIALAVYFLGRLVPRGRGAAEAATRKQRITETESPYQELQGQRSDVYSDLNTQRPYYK
Type: cell-based
Protocol: In Vitro Measurement of Triggering Receptor Expressed on Myeloid Cells 2 Activity Using Cellular Phosphorylation of Spleen Tyrosine Kinase (“Syk”) Assays
Measurement of TREM2 agonist potency was done using a HEK cell line expressing human TREM2 and DAP12 (HEK293T-hTREM2 cells). Binding of small molecules to, and activation of, TREM2 increases the phosphorylation of Syk. The resultant levels of Syk phosphorylation are measured using a commercial AlphaLisa reagent kit. To perform the assay, HEK-hTREM2 cells were plated at 14,000 cells per well in a 384 well plate, in 25 μL of complete growth media and incubated at 37° C., 5% CO2 for 20-24 hours.
Prior to the assay, test compounds were diluted in the 384 well plates in assay buffer and allowed to equilibrate for 30 minutes. Growth media was removed from cell plates by inversion on blotting paper, and 25 μL of test articles in assay buffer was added to cells. Cells were incubated for 45 minutes at room temperature. After 45 minutes, assay buffer was removed and 10 μL of lysis buffer was added. Plates were shaken for 20 minutes at 350 RPM at room temperature. After complete lysis, AlphaLisa reagents were added to the lysate, and fluorescence intensity was measured using a Perkin Elmer Envision plate reader. Intensities were used to generate a standard curve, and % activation was calculated. Curve fitting was performed using Prism v9 software, log (agonist) vs response-variable slope (four parameters), and EC50s were calculated from the curve fit.
The results presented in Table D have been generated with the in vitro assay described above. This assay may be used to test any of the compounds described herein to assess and characterize a compound's ability to act as an agonist of TREM2.

Row | SMILES | EC50 [nM]
1 | Cn1ncc2c(-c3ccc(F)cc3F)nc(C3CCO[C@@H](c4cnn(C5CC5)c4)C3)cc2c1=O (stereo partly drawn) [I-63, 7-[(2R)-2-(1-cyclopropylpyrazol-4-yl)tetrahydropyran-4-yl]-5-(2,4-difluorophenyl)-2-methyl-pyrido[3,4-d]pyridazin-1-one] | 50 to 500
2 | CCn1ncc2c(-c3ccc(Cl)cc3F)nc(N3C[C@@H](C)O[C@@H](c4cnn(C5CC5)c4)C3)nc2c1=O [I-193, 4-(4-chloro-2-fluorophenyl)-2-((2S, 6R)-2-(1-cyclopropyl-1H-pyrazol-4-yl)-6-methylmorpholino)-7-ethyl-pyrimido[4,5-d]pyridazin-8 (7H)-one] | ≤ 50
3 | Cn1ncc2c(-c3ccc(Cl)cc3F)nc(N3C[C@@H](C4CC4)O[C@@H](c4cnn(C5CC5)c4)C3)nc2c1=O (single isomer, unassigned) [I-183] | ≤ 50
4 | Cc1nc2c(-c3ccc(Cl)cc3F)nc(N3C[C@@H](C)O[C@@H](c4cnn(C5CC5)c4)C3)nc2c(=O)n1C [I-152, 8-(4-chloro-2-fluoro-phenyl)-6-[(2S,6R)-2-(1-cyclopropylpyrazol-4-yl)-6-methyl-morpholin-4-yl]-2,3-dimethyl-pyrimido[5,4-d]pyrimidin-4-one] | ≤ 50
5 | Cn1ncc2c(-c3ccc(F)cc3F)nc(C3CCO[C@@H](c4cnn(C5CC5)c4)C3)nc2c1=O (stereo partly drawn) [I-146, 2-[(2R)-2-(1-cyclopropylpyrazol-4-yl)tetrahydropyran-4-yl]-4-(2,4-difluorophenyl)-7-methyl-pyrimido[4,5-d]pyridazin-8-one] | 50 to 500
6 | Cc1nc2c(C3CCCCC3)nc(N3C[C@@H](C)O[C@@H](c4cnn(C5CC5)c4)C3)nc2c(=O)n1C [I-208, 8-cyclohexyl-6-((2S,6R)-2-(1-cyclopropyl-1H-pyrazol-4-yl)-6-methylmorpholino)-2,3-dimethylpyrimido[5,4-d]pyrimidin-4 (3H)-one] | ≤ 50
7 | Cn1ncc2c(-c3ccc(C(F)(F)F)cc3F)nc(C3CCO[C@@H](c4cnn(C5CC5)c4)C3)nc2c1=O (stereo partly drawn) [I-84, 2-((2R)-2-(1-cyclopropyl-1H-pyrazol-4-yl)tetrahydro-2H-pyran-4-yl)-4-(2-fluoro-4-(trifluoromethyl)phenyl)-7-methylpyrimido[4,5-d]pyridazin-8 (7H)-one] | 50 to 500
8 | C[C@@H]1CN(c2cc3c(=O)n(C)ncc3c(-c3ccc(F)cc3F)n2)C[C@H](c2cnn(C3CC3)c2)O1 [I-58, 7-[(2S,6R)-2-(1-cyclopropylpyrazol-4-yl)-6-methyl-morpholin-4-yl]-5-(2,4-difluorophenyl)-2-methyl-pyrido[3,4-d]pyridazin-1-one] | ≤ 50
9 | Cn1ncc2c(-c3ccc(C(F)(F)F)cc3F)nc([C@H]3CCO[C@@H](c4cnn(C5CC5)c4)C3)cc2c1=O [I-53, 7-[(2R, 4S)-2-(1-cyclopropylpyrazol-4-yl)tetrahydropyran-4-yl]-5-[2-fluoro-4-(trifluoroomethyl)phenyl]-2-methyl-pyrido[3,4-d]pyridazin-1-one] | 50 to 500
10 | C[C@@H]1CN(c2cc(-c3ccc(Cl)cc3F)c3cnn(C)c(=O)c3n2)C[C@H](c2cnn(C3CC3)c2)O1 [I-100, 4-(4-chloro-2-fluorophenyl)-2-((2S,6R)-2-(1-cyclopropyl-1H-pyrazol-4-yl)-6-methylmorpholino)-7-methylpyrido[2,3-d]pyridazin-8 (7H)-one] | 50 to 500
11 | Cc1nc2c(-c3ccc(F)cc3F)nc([C@@H]3CCO[C@@H](c4cnn(C5CC5)c4)C3)nc2c(=O)n1C [I-168] | 50 to 500
12 | Cc1ccc(-c2nc(N3C[C@@H](C)O[C@@H](c4cnn(C5CC5)c4)C3)nc3c(=O)n(C)ncc23)c(F)c1 [I-203, 2-((2S,6R)-2-(1-cyclopropyl-1H-pyrazol-4-yl)-6-methylmorpholino)-4-(2-fluoro-4-methylphenyl)-7-methylpyrimido[4,5-d]pyridazin-8 (7H)-one] | ≤ 50
